What is called pKi is −log10 of the Ki, conventionally taken in molar units.

The values that follow come from ChEMBL document CHEMBL1135278, “Thiophene derivatives: a new series of potent norepinephrine and serotonin reuptake inhibitors” (Bioorg Med Chem Lett, 2002).

pKi: −log10 of the molar value.

Assay [1] has as its target Sodium-dependent serotonin transporter (Rattus norvegicus, UniProt P31652). The assay can be described thus: Inhibition of [3H]5-HT reuptake at serotonin transporter in rat mid brain.
The target in assay [2] is Sodium-dependent dopamine transporter (Rattus norvegicus, UniProt P23977). Kind of assay: Inhibition of [3H]DA reuptake at dopamine transporter in rat striatum. Type of assay: tissue-based.
The target in assay [3] is Norepinephrine transporter (Rattus norvegicus, UniProt Q9WTR4). Kind of assay: Inhibition of [3H]-NE reuptake at Norepinephrine transporter in rat parietal/occipital cortex.
The target in assay [4] is Monoamine transporters; Norepinephrine & serotonin (Rattus norvegicus) (UniProt P31652+Q9WTR4). Kind of assay: Relative reuptake inhibition at norepinephrine and serotonin transporters. It is filed as protein assay.

Chain of Norepinephrine transporter (Q9WTR4 whole entry): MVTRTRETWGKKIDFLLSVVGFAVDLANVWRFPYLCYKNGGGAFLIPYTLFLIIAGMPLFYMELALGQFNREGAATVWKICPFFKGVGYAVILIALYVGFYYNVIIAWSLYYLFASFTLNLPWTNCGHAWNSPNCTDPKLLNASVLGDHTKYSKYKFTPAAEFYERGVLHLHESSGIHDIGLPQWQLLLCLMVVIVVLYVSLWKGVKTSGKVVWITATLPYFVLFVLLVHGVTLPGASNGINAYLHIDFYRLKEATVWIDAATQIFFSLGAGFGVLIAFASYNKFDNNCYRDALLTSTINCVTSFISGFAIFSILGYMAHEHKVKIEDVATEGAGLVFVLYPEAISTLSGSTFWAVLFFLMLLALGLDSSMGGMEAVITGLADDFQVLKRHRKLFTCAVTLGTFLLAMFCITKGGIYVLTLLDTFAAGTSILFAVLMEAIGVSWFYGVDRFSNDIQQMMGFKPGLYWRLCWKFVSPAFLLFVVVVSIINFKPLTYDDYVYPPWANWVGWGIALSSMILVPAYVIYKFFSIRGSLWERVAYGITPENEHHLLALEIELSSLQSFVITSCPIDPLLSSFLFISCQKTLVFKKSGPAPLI
Chain of Sodium-dependent serotonin transporter (P31652 whole entry): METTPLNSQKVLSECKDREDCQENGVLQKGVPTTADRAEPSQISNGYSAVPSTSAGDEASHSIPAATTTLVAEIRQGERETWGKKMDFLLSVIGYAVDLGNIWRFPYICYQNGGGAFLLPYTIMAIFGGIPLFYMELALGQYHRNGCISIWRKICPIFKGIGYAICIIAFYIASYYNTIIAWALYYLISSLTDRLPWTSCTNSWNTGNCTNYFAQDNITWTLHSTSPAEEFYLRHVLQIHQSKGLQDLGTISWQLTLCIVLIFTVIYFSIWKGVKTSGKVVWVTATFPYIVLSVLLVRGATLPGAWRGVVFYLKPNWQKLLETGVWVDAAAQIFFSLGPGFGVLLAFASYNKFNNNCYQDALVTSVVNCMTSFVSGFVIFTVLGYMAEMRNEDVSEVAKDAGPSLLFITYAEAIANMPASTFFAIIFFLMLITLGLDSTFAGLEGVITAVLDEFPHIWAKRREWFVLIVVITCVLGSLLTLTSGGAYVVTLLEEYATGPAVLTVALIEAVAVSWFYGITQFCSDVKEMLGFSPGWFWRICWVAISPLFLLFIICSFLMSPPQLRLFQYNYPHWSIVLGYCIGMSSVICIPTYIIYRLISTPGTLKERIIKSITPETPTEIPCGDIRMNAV
Chain of Sodium-dependent dopamine transporter (P23977 whole entry): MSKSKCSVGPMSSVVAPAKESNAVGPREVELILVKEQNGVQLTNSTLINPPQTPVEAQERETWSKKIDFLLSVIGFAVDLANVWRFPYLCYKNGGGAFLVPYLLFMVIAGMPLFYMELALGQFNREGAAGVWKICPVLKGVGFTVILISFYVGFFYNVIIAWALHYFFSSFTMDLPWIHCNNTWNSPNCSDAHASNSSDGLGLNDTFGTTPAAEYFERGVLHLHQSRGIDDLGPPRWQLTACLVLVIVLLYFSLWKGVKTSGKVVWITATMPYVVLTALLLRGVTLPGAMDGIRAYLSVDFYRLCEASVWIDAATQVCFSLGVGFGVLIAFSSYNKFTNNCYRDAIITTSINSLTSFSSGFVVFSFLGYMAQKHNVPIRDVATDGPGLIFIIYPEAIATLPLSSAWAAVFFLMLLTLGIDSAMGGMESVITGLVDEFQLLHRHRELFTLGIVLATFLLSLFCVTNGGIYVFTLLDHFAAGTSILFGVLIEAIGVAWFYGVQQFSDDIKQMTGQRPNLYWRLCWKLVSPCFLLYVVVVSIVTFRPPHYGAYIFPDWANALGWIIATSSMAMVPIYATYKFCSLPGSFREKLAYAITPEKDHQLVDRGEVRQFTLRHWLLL

For `CC(=O)OCC1C2CC3CCC1N3C/C2=C\c1cccs1` (stereo unspecified), the pKi was 5.82 in assay [1], 6.21 in assay [2] and 6.55 in assay [3].

Turning to `CC(C)(C)OC(=O)NCC1C2CC3CCC1N3C/C2=C\c1cccs1` (stereo unspecified), the pKi in assay [1] was 5.63; in assay [2] it was 5.64; in assay [3], 5.77.

In the case of `COC(=O)C1C2CC3CCC1N3C/C2=C\c1ccc(I)s1` (stereo unspecified), the pKi in assay [1] is 7.54; in assay [2] it was 6.43; in assay [3] it was 8.30.

For the compound `OCC1C2CC3CCC1N3C/C2=C\c1cccs1` (stereo unspecified), the pKi was around 6.00 in assay [1], around 5.52 in assay [2] and around 6.52 in assay [3]. The Ratio in assay [4] was 0.3.

As for `O=C(OCC1C2CC3CCC1N3C/C2=C\c1ccc(I)cc1)c1ccccc1` (stereo unspecified), the pKi in assay [1] is 10.00.

For the compound `COC(=O)C1C2CC3CCC1N3C/C2=C\c1cccs1` (stereo unspecified), the values for the pKi in assay [1], in assay [2] and in assay [3] were 5.69, 6.57 and 7.58, respectively.

In the case of `CC(=O)NCC1C2CC3CCC1N3C/C2=C\c1cccs1` (stereo unspecified), the pKi in assay [1] was 4.88; in assay [2], 5.21; in assay [3], 5.61.

For `O=C(OCC1C2CC3CCC1N3C/C2=C\c1cccs1)c1ccc2ccccc2c1` (stereo unspecified), the values for the pKi in assay [1], in assay [2] and in assay [3] were 6.77, 5.78 and 5.91, respectively.

In assay [1], `O=C(OCC1C2CC3CCC1N3C/C2=C\c1ccc(I)c(Cl)c1)c1ccccc1` (stereo unspecified) had a pKi of 10.22.

As for `COC(=O)C1C2CC3CCC1N3C/C2=C\c1ccc(C)s1` (stereo unspecified), the negative logarithm of the Ki (pKi) in assay [1] was 6.75; in assay [2] it was 6.39; in assay [3], 8.31.

Take `O=C(OCC1C2CC3CCC1N3C/C2=C\c1cccs1)c1ccccc1` (stereo unspecified): the pKi is 8.82 in assay [1], 5.76 in assay [2] and 6.05 in assay [3].

With `CC(C)OC(=O)C1C2CC3CCC1N3C/C2=C\c1cccs1` (stereo unspecified), the pKi in assay [1] was 5.94; in assay [2], 6.37; in assay [3], 7.28.

With `CC(C)(C)C(=O)OCC1C2CC3CCC1N3C/C2=C\c1cccs1` (stereo unspecified), the negative-log Ki (pKi) was 6.77 in assay [1], 5.99 in assay [2] and 5.93 in assay [3].
